Experimental data published in PubChem BioAssay (NCI).
“And” between values parts separate entries of the source, which are not always exact repeats. Equal values may be shown once.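 Following 48 hours of exposure in 96-well plates, responses at five concentrations were used to interpolate endpoints linearly. GI50 = concentration required for 50% inhibition of growth. TGI marks complete inhibition of growth.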

Legend:
Assay in all cases: DTP human tumour cell line panel, 48 h
[1] = tested on: TK-10 renal
[2] = tested on: CAKI-1 renal
[3] = tested on: SK-MEL-2 melanoma
[4] = tested on: SF-268 CNS
[5] = tested on: COLO 205 colon
[6] = tested on: SF-539 CNS
[7] = tested on: HOP-92 NSCLC
[8] = tested on: NCI-H460 lung
[9] = tested on: EKVX NSCLC
[10] = tested on: K-562 leukemia

Row | SMILES | GI50 [1] | TGI [1] | GI50 [2] | TGI [2] | GI50 [3] | TGI [3] | GI50 [4] | TGI [4] | GI50 [5] | TGI [5] | GI50 [6] | TGI [6] | GI50 [7] | TGI [7] | GI50 [8] | TGI [8] | TGI [9] | GI50 [9] | GI50 [10] | TGI [10]
1 | O=C(N/N=C/c1ccc(O)cc1O)c1cccnc1 | 2.52 µM | > 100 µM | 1.76 µM | 45.6 µM | 13.5 µM | 60.8 µM | 2.22 µM | 59.4 µM | 2.8 µM | > 100 µM | 2.64 µM | 19.3 µM | 2.09 µM | 43.5 µM | 1.18 µM | > 100 µM |  |  |  | 
2 | Cc1ccc(C)c(N2C(=O)C(=O)C(c3nc4ccccc4o3)/C(=N/N)C2=O)c1 (stereo not drawn) |  | > 100 µM |  | > 100 µM |  | > 100 µM |  | > 100 µM |  | > 100 µM |  | > 100 µM |  | > 100 µM |  | > 100 µM | > 100 µM |  |  | 
3 | O=C(CCN1CCOCC1)Nc1cccc(-n2cc(-c3ccncc3)c(-c3ccc(Cl)c(O)c3)n2)c1 | 8.18 µM | 20.7 µM |  |  | 1.85 µM | 6.58 µM | 2.81 µM | 14.4 µM | 1.66 µM | 4.27 µM | 1.77 µM | 3.72 µM | 2.06 µM | 14 µM | 2.79 µM | 12.4 µM | 20.4 µM | 3.63 µM | 1.76 µM | 11.4 µM
4 | COc1ccc(-c2ccc(NNC(=O)c3ccc(F)cc3)nn2)cc1OC | > 100 µM | > 100 µM | 34.3 µM | > 100 µM |  |  | 79.8 µM | > 100 µM | > 100 µM | > 100 µM | > 100 µM | > 100 µM | 17.8 µM | 99.3 µM | > 100 µM | > 100 µM | > 100 µM | > 100 µM | 58.7 µM | > 100 µM
5 | c1ccc2c(c1)c1ccccc1c1ccccc21 | > 100 µM | > 100 µM | > 100 µM | > 100 µM | > 100 µM | > 100 µM | > 100 µM | > 100 µM | > 100 µM | > 100 µM | > 100 µM | > 100 µM | > 100 µM | > 100 µM | > 100 µM | > 100 µM |  |  | > 100 µM | > 100 µM
6 | NC(=O)CNc1ccc([As]=[As]c2ccc(NCC(N)=O)cc2)cc1 (stereo not drawn) |  |  | 2.41 µM | 17.9 µM |  |  | 2.73 µM | 14 µM | 7.83 µM | 22 µM | 2.8 µM | > 100 µM | 1.63 µM | 15.1 µM | 10.6 µM | 35.4 µM | 90.9 µM | 4.83 µM | 3.47 µM | > 100 µM
7 | O=C1C2[C@@H](C(=O)N1c1ccc(Br)cc1)C13C(=CC2([N+](=O)[O-])[C@@H]2C(=O)N(c4ccc(Br)cc4)C(=O)[C@@H]21)c1ccccc1N3c1ccccc1 (stereo partly drawn) |  | > 100 µM |  |  |  | > 100 µM |  | 24.2 µM |  | > 100 µM |  | > 100 µM |  | > 100 µM |  |  | > 100 µM |  |  | > 100 µM
8 | NCCN.O=C([O-])[O-].O=C([O-])[O-].[Co+3].[K+] | > 100 µM | > 100 µM |  |  | > 100 µM | > 100 µM | > 100 µM | > 100 µM | > 100 µM | > 100 µM | > 100 µM | > 100 µM | 49.4 µM and 75.2 µM | > 100 µM | > 100 µM | > 100 µM | > 100 µM | > 100 µM | > 100 µM | > 100 µM
9 | Cc1ccc2[c](c1)[Sn]([c]1ccccc1)([c]1ccccc1)[c]1cc(C)ccc1N2C | > 100 µM | > 100 µM |  |  | 11.2 µM | 51.9 µM | 48.4 µM | > 100 µM | 23.1 µM | 52.2 µM | > 100 µM | > 100 µM | 5.58 µM and 15.7 µM | > 100 µM | 51.2 µM | > 100 µM | > 100 µM | 41.4 µM |  | 
10 | NC(=S)N/N=C1\CCCC\C1=C/c1ccccc1 |  | > 100 µM |  |  |  | > 100 µM |  | > 100 µM |  | > 100 µM |  | > 100 µM |  | > 100 µM |  | > 100 µM | > 100 µM |  |  | > 100 µM
11 | CSc1ccc2c(cc1=O)[C@@H](NC(=O)c1cc(O)c(O)c(O)c1)CCc1cc(O)c(O)c(O)c1-2 |  | > 100 µM |  |  |  |  |  | > 100 µM |  | 75.3 µM |  | 52.3 µM |  |  |  | 44.3 µM | 56.7 µM |  |  | 18.9 µM
12 | N#CC(C#N)=C1CCCOc2c1ccc1ccccc21 | 42.9 µM | > 100 µM | > 100 µM | > 100 µM |  |  | > 100 µM | > 100 µM | > 100 µM | > 100 µM | > 100 µM | > 100 µM | 15.8 µM | 71.7 µM | > 100 µM | > 100 µM | > 100 µM | 46.8 µM | 20.4 µM | 43.5 µM
13 | CN(C)CCNc1nc2ccccc2c2c(=O)c3cc(F)ccc3sc12 | 1.76 µM | 3.33 µM | 1.58 µM | 2.93 µM | 2.05 µM | 4.06 µM |  |  | 2.13 µM | 4.86 µM | 1.67 µM | 3.07 µM |  |  | 1.79 µM | 3.42 µM |  |  | 2 µM | 4.84 µM
14 | COc1ccc(-c2noc(N)c2-c2cc(OC)c3c(c2)OCO3)cc1 | 7.8 µM | > 100 µM | 3.21 µM | > 100 µM | 1.51 µM | 6.83 µM | 5.47 µM | 98.9 µM | 2.34 µM | 9.41 µM | 1.76 µM | 4.91 µM | 2.47 µM | 76.8 µM | 3.13 µM | 28 µM |  |  | 0.405 µM | > 100 µM
15 | Nc1c(C(=O)Nc2ccccc2Cl)sc2nc3c(cc12)C(=O)CCC3 | 78.6 µM | > 100 µM | 1.84 µM | > 100 µM | 1.09 µM | > 100 µM | 39.3 µM | > 100 µM | 0.724 µM | 3.54 µM | 1.15 µM | > 100 µM | 7.29 µM | > 100 µM | 0.673 µM | > 100 µM |  |  | 0.493 µM | > 100 µM
16 | CCOC(=O)C(C)(c1c(C)[nH]c2ccccc12)c1c(C)[nH]c2ccccc12 |  | 45.6 µM |  | 45.4 µM |  | 38.4 µM |  |  |  |  |  | 39.1 µM |  |  |  | 38.7 µM | > 100 µM |  |  | 42.4 µM
